# Experiments:
# peritoneal cancer = details: intraperitoneal administration; cited from earlier work
# [1] = tested on: human head and neck FaDu xenografts; experiment: nano-sized latex bead delivery and dispersion in tumors after tumor priming; format: in vivo, Mice; details: paclitaxel 40 milligrams per kilogram intravenously, beads 48 hours later, tumors excised 24 hours after
# Experimental: Mice were implanted subcutaneously with human head and neck FaDu xenografts, and divided in two groups. […] The control group (without tumor priming) only received the vehicle. Forty-eight hours later, animals received an intravenous injection of red fluorescent latex beads of 100, or 200 nm diameter. Tumors were excised 24 hours after the injection of the beads and examined. […] The percentage of area in tumors occupied by particles was calculated as (total number of deep-derived pixels) divided by (total number of pixels per microscopic field), which provided a measurement of the dispersion area. The average bead concentration in tumors was the average fluorescence intensity, which was calculated as (mean intensity of bead-derived pixels multiplied by total number of bead-derived pixels) divided by (total number of pixels per microscopic field). Eight tumors were used per data point.
# [2] = tested on: Human RT4 bladder transitional bladder cancer cells; experiment: cytotoxicity in RT4 cells, immediate and delayed effect, sulforhodamine B assay; format: cell-based; details: immediate effect
# [3] = tested on: stage T0 and T1 bladder tumors obtained from human patients; details: cited from earlier work
# [4] = tested on: Histocultures of head and neck FaDu xenograft tumors; experiment: Lipo-siRNA penetration into tumor histocultures with and without tumor priming; format: cell-based; details: paclitaxel 0.5 μM maintained for 48 hour, versus no priming
# Experimental: Histocultures of head and neck FaDu xenograft tumors were maintained in vitro. Penetration of siRNA, formulated in cationic liposomes, was evaluated with and without tumor priming pretreatment. To facilitate detection, siRNA were labeled with green fluorescence (siGLO) and lipids were labeled with a red fluorescence marker. […] In the overlay picture, the red and green fluorescent images are combined. […] The bars indicate a length of 100 μm.
Compound,extension of survival time in patients (peritoneal cancer),delivery of latex beads to tumors after tumor priming [1],maximal inhibition ([2]; 48 hours),maximal inhibition ([2]; 96 hours),IC50 [3],penetration of siGLO-loaded liposomes after paclitaxel priming [4]
N.N.[Cl][Pt][Cl] [cisplatin],about 20%,,,,,
CC(=O)O[C@H]1C(=O)[C@@]2(C)[C@H]([C@H](OC(=O)c3ccccc3)[C@]3(O)C[C@H](OC(=O)[C@H](O)[C@@H](NC(=O)c4ccccc4)c4ccccc4)C(C)=C1C3(C)C)[C@]1(OC(C)=O)CO[C@@H]1C[C@@H]2O [paclitaxel],,enhanced the delivery of the 100- and 200-nm latex beads,60%,84%,1.2 µM,at least five-fold deeper

# From patent publication US8043631B2, “Tumor targeting drug-loaded particles” (priority 2005, dated 2011)
